In patent publication US10898481B2 (priority 2018, dated 2021):
pIC50: −log10 of the molar value. Read-outs that look alike come from different tables or passages of the source.

Columns and labels:
hA3/CHO = hA3/CHO (Homo sapiens (Human), UniProt P0DMS8); test: cell-based
Protocol: hA2a/CHO, hA2b/CHO, hA3/CHO and mA2a/CHO (Genscript) were plated at 5×10^3 cells/well into 384-well polystyrene plates at the day of experiment. Compounds were pre-incubated with cells for 30 min at 37° C., 5% CO2. Then 10 μM adenosine was added to the cells and incubated for 30 min at 37° C., 5% CO2. Detection reagent (CISBIO) was added and the plates were incubated for 60 min at room temperature. The signal was captured by Envision.

mA2a/CHO = mA2a/CHO (Mus musculus (Mouse), UniProt Q60613); test: cAMP inhibition assay in mA2a/CHO cells, 10 μM adenosine; format: cell-based; settings: read-out: cAMP & FLIPR IC50 (nM) mA2a;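 note: compounds preincubated 30 min at 37 °C before the adenosine challenge, then 30 min further stimulation, readout after 60 min detection reagent incubation at room temperature in 384-well plates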
hA2b/CHO = hA2b/CHO (Homo sapiens (Human), UniProt P29275); test: cAMP inhibition assay in hA2b/CHO cells, 10 μM adenosine; format: cell-based; settings: read-out: cAMP & FLIPR IC50 (nM) hA2b;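 note: cells exposed to compound 30 min at 37 °C, then stimulated with adenosine a further 30 min, cAMP read after 60 min at room temperature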
[1] = target: hADORA1/CHO (hA1 expressing) cells (Homo sapiens (Human), UniProt P30542); test: cell-based; settings: 10 μM adenosine
hA2a/CHO = hA2a/CHO (Homo sapiens (Human), UniProt P29274); test: cAMP inhibition assay in hA2a/CHO cells, 10 μM adenosine; format: cell-based; settings: read-out: cAMP & FLIPR IC50 (nM) hA2a;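 note: compounds added to cells 30 min ahead of adenosine, then a further 30 min at 37 °C with adenosine before cAMP detection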
hA2a = hA2a (Homo sapiens (Human), UniProt P29274); test: Radioligand binding to hA2a membrane with [3H]-CGS21680; settings: read-out: Binding Affinity (IC50 nM) hA2a
From the text: (§1) The empty boxes in the tables below indicate data not collected yet.

hA1 = hA1 (Homo sapiens (Human), UniProt P30542); settings: hA1 membrane, [3H]-DPCPX; read-out: Binding Affinity (IC50 nM) hA1
From the text: as §1

[2] = FLIPR inhibition, read-out: cAMP & FLIPR IC50 (nM) hA1

Sequence of hADORA1/CHO (hA1 expressing) cells (P30542 whole entry): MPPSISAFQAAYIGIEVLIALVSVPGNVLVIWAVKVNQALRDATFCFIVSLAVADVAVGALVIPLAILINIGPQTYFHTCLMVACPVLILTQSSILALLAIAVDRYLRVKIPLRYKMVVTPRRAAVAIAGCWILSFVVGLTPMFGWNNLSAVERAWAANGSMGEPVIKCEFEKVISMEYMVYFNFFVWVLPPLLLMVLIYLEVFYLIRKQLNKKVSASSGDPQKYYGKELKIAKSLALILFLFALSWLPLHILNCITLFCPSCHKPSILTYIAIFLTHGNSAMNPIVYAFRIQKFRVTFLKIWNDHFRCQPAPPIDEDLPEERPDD
Sequence of hA2a (P29274 whole entry): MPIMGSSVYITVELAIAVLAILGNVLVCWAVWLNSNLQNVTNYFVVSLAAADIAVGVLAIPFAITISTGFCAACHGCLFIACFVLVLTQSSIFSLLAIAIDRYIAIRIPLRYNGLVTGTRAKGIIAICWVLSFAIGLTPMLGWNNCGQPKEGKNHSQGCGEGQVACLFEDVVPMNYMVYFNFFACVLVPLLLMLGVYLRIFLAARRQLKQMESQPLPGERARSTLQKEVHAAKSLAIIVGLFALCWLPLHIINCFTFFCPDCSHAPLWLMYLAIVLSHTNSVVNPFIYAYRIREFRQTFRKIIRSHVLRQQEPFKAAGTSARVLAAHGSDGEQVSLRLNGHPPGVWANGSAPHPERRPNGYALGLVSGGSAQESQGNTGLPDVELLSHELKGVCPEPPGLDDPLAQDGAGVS
Sequence of hA2a/CHO (P29274 whole entry): as above
Sequence of hA3/CHO (P0DMS8 whole entry): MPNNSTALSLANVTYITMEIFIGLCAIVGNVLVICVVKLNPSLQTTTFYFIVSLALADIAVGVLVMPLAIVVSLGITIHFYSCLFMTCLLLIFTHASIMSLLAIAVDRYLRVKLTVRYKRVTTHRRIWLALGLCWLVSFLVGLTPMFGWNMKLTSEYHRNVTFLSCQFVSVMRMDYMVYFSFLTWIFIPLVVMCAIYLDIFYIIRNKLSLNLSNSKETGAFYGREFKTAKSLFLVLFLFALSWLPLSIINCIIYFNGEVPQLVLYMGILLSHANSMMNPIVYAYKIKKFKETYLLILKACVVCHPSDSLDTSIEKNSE
Sequence of mA2a/CHO (Q60613 whole entry): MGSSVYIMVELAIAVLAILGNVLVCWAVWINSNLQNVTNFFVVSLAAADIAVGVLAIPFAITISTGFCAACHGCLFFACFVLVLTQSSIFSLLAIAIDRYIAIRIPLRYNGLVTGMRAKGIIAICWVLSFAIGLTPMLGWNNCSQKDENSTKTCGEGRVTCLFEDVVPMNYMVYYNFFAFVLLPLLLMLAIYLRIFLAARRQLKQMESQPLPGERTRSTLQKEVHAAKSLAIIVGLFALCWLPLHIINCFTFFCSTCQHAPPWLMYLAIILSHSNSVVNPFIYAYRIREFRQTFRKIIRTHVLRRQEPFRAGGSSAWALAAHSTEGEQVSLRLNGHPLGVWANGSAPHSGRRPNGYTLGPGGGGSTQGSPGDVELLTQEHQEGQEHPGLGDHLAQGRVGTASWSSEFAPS
Sequence of hA2b/CHO (P29275 whole entry): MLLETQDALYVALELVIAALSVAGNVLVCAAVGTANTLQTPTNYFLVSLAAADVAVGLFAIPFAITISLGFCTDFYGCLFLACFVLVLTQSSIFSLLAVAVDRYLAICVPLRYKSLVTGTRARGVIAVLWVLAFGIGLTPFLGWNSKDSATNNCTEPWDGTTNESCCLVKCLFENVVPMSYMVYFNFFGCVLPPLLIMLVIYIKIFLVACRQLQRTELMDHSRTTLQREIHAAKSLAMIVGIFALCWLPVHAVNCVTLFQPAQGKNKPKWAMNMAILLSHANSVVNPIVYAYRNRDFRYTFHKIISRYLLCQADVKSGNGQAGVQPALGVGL
Sequence of hA1 (P30542 whole entry): as the sequence (P30542 whole entry) above

Row | Structure (SMILES) | pIC50 (hA3/CHO) | IC50 (mA2a/CHO) | IC50 (hA2b/CHO) | IC50 [1, 2] | IC50 (hA2a/CHO) | IC50 (hA2a) | IC50 (hA1) | IC50 ([1]; cAMP & FLIPR IC50 (nM) hA1, FLIPR inhibition)
1 | CN(C)c1cccc(CNC(=O)c2nc(-c3ccc(=O)n(C)c3)c(-c3ccc(F)cc3)nc2N)n1 [Example 13, 3-amino-N-[[6-(dimethylamino)pyridin-2-yl]methyl]-5-(4-fluorophenyl)-6-(1-methyl-6-oxo-1,6-dihydropyridin-3-yl)pyrazine-2-carboxamide] | ≤ 5.00 | 51 nM | 4640 nM | 72 nM | 6.1 nM | – | – | –
2 | Cn1cc(-c2nc(C(=O)NCc3ncccc3F)c(N)nc2-c2ncco2)ccc1=O [Example 14, 3-amino-N-((3-fluoropyridin-2-yl)methyl)-6-(1-methyl-6-oxo-1,6-dihydropyridin-3-yl)-5-(oxazol-2-yl)pyrazine-2-carboxamide] | ≤ 5.00 | 213 nM | 768 nM | 10000 nM | 98 nM | 3.1 nM | – | –
3 | CC(NC(=O)c1nc(-c2ccc(=O)n(C)c2)c(-c2ncco2)nc1N)c1c(F)cccc1F (stereo not shown) [Example 20, 3-amino-N-(1-(2,6-difluorophenyl)ethyl)-6-(1-methyl-6-oxo-1,6-dihydropyridin-3-yl)-5-(oxazol-2-yl) pyrazine-2-carboxamide] | ≤ 5.00 | 170 nM | 3600 nM | 6610 nM | 41 nM | – | – | –
4 | Cc1scnc1CNC(=O)c1nc(-c2ccc(=O)n(C)c2)c(-c2ncco2)nc1N [Example 22, 3-amino-6-(1-methyl-6-oxo-1,6-dihydropyridin-3-yl)-N-((5-methylthiazol-4-yl)methyl)-5-(oxazol-2-yl)pyrazine-2-carboxamide] | ≤ 5.00 | 132 nM | 2550 nM | 3380 nM | 60 nM | 3.5 nM | – | –
5 | Cn1cc(-c2nc(C(=O)NCc3cccc(N)n3)c(N)nc2-c2ncco2)ccc1=O [Example 24, 3-amino-N-[(6-aminopyridin-2-yl)methyl]-6-(1-methyl-6-oxo-1,6-dihydropyridin-3-yl)-5-(1,3-oxazol-2-yl)pyrazine-2-carboxamide] | ≤ 5.00 | 641 nM | 1460 nM | 9360 nM | 199 nM | 11 nM | – | –
6 | CN(C)c1ccnc(CNC(=O)c2nc(-c3ccc(=O)n(C)c3)c(-c3ncco3)nc2N)n1 [Example 25, 3-amino-N-((4-(dimethylamino)pyrimidin-2-yl)methyl)-6-(1-methyl-6-oxo-1,6-dihydropyridin-3-yl)-5-(oxazol-2-yl)pyrazine-2-carboxamide] | ≤ 5.00 | 242 nM | ≥ 10000 nM | 3300 nM | 125 nM | – | – | –
7 | Cn1cc(-c2nc(C(=O)NCc3cccc(N4CCC4)n3)c(N)nc2-c2ncco2)ccc1=O [Example 26, 3-amino-N-[[6-(azetidin-1-yl)pyridin-2-yl]methyl]-6-(1-methyl-6-oxo-1,6-dihydropyridin-3-yl)-5-(1,3-oxazol-2-yl)pyrazine-2-carboxamide] | ≤ 5.00 | 309 nM | ≥ 10000 nM | 725 nM | 108 nM | – | – | –
8 | CN(C)c1ccc(F)c(CNC(=O)c2nc(-c3ccc(=O)n(C)c3)c(-c3ncco3)nc2N)c1 [Example 27, 3-amino-N-(5-(dimethylamino)-2-fluorobenzyl)-6-(1-methyl-6-oxo-1,6-dihydropyridin-3-yl)-5-(oxazol-2-yl)pyrazine-2-carboxamide] | ≤ 5.00 | 177 nM | ≥ 10000 nM | 1770 nM | 60 nM | – | – | –
9 | Cn1cc(-c2nc(C(=O)NCc3cccc(N4CCCC4)n3)c(N)nc2-c2ncco2)ccc1=O [Example 28, 3-amino-6-(1-methyl-6-oxo-1,6-dihydropyridin-3-yl)-5-(1,3-oxazol-2-yl)-N-[[6-(pyrrolidin-1-yl)pyridin-2-yl]methyl]pyrazine-2-carboxamide] | ≤ 5.00 | 160 nM | ≥ 10000 nM | 4900 nM | 129 nM | – | – | –
10 | Cn1cc(-c2nc(C(=O)NCc3c(F)cccc3F)c(N)nc2-c2ccc(F)cc2)ccc1=O [Example 29, 3-amino-N-[(2,6-difluorophenyl)methyl]-5-(4-fluorophenyl)-6-(1-methyl-6-oxo-1,6-dihydropyridin-3-yl)pyrazine-2-carboxamide] | ≤ 5.00 | 60 nM | 103 nM | 66 nM | 6.8 nM | 2.3 nM | – | –
11 | Cn1cc(-c2nc(C(=O)NCc3ncccc3OC(F)(F)F)c(N)nc2-c2ncco2)ccc1=O [Example 30, 3-amino-6-(1-methyl-6-oxo-1,6-dihydropyridin-3-yl)-5-(1,3-oxazol-2-yl)-N-[[3-(trifluoromethoxy)pyridin-2-yl]methyl]pyrazine-2-carboxamide] | ≤ 5.00 | 47 nM | 603 nM | 214 nM | 45 nM | – | – | –
12 | Nc1nc(-c2ncco2)c(-c2ccc(=O)n(C(F)F)c2)nc1C(=O)NCc1ncccc1F [Example 31, 3-amino-6-[1-(difluoromethyl)-6-oxo-1,6-dihydropyridin-3-yl]-N-[(3-fluoropyridin-2-yl)methyl]-5-(1,3-oxazol-2-yl)pyrazine-2-carboxamide] | ≤ 5.00 | 75 nM | 164 nM | 35 nM | 34 nM | – | – | –
13 | Nc1nc(-c2ncco2)c(-c2ccc3nccn3c2)nc1C(=O)NCc1c(F)cccc1F [Example 32, 3-amino-N-[(2,6-difluorophenyl)methyl]-6-[imidazo[1,2-a]pyridin-6-yl]-5-(1,3-oxazol-2-yl)pyrazine-2-carboxamide] | ≤ 5.00 | 2 nM | 3 nM | 494 nM | 0.2 nM | – | – | –
14 | CN(C)c1cccc(CNC(=O)c2nc(-c3ccc(=O)n(C)c3)c(-c3ncco3)nc2N)c1F [Example 33, 3-amino-N-(3-(dimethylamino)-2-fluorobenzyl)-6-(1-methyl-6-oxo-1,6-dihydropyridin-3-yl)-5-(oxazol-2-yl)pyrazine-2-carboxamide] | ≤ 5.00 | 123 nM | ≥ 10000 nM | 3030 nM | 56 nM | – | – | –
15 | Nc1nc(-c2ncco2)c(-c2ccc3nncn3c2)nc1C(=O)NCc1c(F)cccc1F [Example 34, 6-([1,2,4]triazolo[4,3-a]pyridin-6-yl)-3-amino-N-(2,6-difluorobenzyl)-5-(oxazol-2-yl)pyrazine-2-carboxamide] | ≤ 5.00 | 192 nM | 330 nM | 10000 nM | 63 nM | 3.7 nM | – | –
16 | Cn1cc(-c2nc(C(=O)NCc3c(F)cccc3F)c(N)nc2-n2nccn2)ccc1=O [Example 35, 3-amino-N-(2,6-difluorobenzyl)-6-(1-methyl-6-oxo-1,6-dihydropyridin-3-yl)-5-(2H-1,2,3-triazol-2-yl)pyrazine-2-carboxamide] | ≤ 5.00 | 43 nM | 203 nM | 112 nM | 15 nM | 3.2 nM | – | –
17 | Nc1nc(-c2ncco2)c(-c2ccc3[nH]cnc3c2)nc1C(=O)NCc1ncccc1F [Example 47, 3-amino-6-(1H-1,3-benzodiazol-5-yl)-N-[(3-fluoropyridin-2-yl)methyl]-5-(1,3-oxazol-2-yl)pyrazine-2-carboxamide] | – | – | – | – | – | – | 696 nM | 10000 nM
